# Test results taken from ChEMBL document CHEMBL3885881, “DrugMatrix”.
# Organism: Rattus norvegicus
# Assay: DrugMatrix - Regimen: Daily Repeat
# Format: toxicity, organism-based, Sprague-Dawley
# Design: regimen Daily Repeat, gender Male, age 6-8 weeks
# Conditions: in vivo, po, route oral GAVAGE, vehicle 100 % WATER; for BASOPHIL / EOSINOPHIL / ERYTHROCYTE COUNT / HEMATOCRIT / HEMOGLOBIN / LEUKOCYTE COUNT / LYMPHOCYTE / MEAN CORPUSCULAR HEMOGLOBIN / MEAN CORPUSCULAR HEMOGLOBIN CONCENTRATION / MONOCYTE / NEUTROPHIL / PLATELET COUNT: tissue Blood; for ALANINE AMINOTRANSFERASE / ALBUMIN / ALKALINE PHOSPHATASE / ASPARTATE AMINOTRANSFERASE / BLOOD UREA NITROGEN / CHLORIDE / CHOLESTEROL / CREATINE PHOSPHOKINASE / CREATININE / GLUCOSE / PHOSPHORUS / POTASSIUM / SODIUM / TOTAL BILIRUBIN / TOTAL PROTEIN: tissue Plasma
# [1] = 0 mg/kg, 72 h, dose level Control, time 3 day
# [2] = 0 mg/kg, 120 h, dose level Control, time 5 day
# [3] = 755 mg/kg, 72 h, dose level High, time 3 day
# [4] = 755 mg/kg, 120 h, dose level High, time 5 day
structure (smiles),measurement,setting,value
CCN(CC)CCNC(=O)c1ccc(N)cc1 [PROCAINAMIDE],BASOPHIL,[1],0%
same,EOSINOPHIL,[1],0.33%
same,ERYTHROCYTE COUNT,[1],5.88 x10E6/uL
same,HEMATOCRIT,[1],36.47%
same,HEMOGLOBIN,[1],14.2 G/DL
same,LEUKOCYTE COUNT,[1],9.28 x10E3/uL
same,LYMPHOCYTE,[1],82.33%
same,MEAN CORPUSCULAR HEMOGLOBIN,[1],24.2 pg
same,MEAN CORPUSCULAR HEMOGLOBIN CONCENTRATION,[1],38.97 G/DL
same,MONOCYTE,[1],2.33%
same,NEUTROPHIL,[1],15%
same,PLATELET COUNT,[1],1114 x10E3/uL
same,ALANINE AMINOTRANSFERASE,[1],41.17 u/L
same,ALBUMIN,[1],3.95 G/DL
same,ALKALINE PHOSPHATASE,[1],382.5 u/L
same,ASPARTATE AMINOTRANSFERASE,[1],67.33 u/L
same,BLOOD UREA NITROGEN,[1],15.5 mg/dL
same,CHLORIDE,[1],106.33 MEQ/L
same,CHOLESTEROL,[1],77.67 mg/dL
same,CREATINE PHOSPHOKINASE,[1],123.33 u/L
same,CREATININE,[1],0.62 mg/dL
same,GLUCOSE,[1],185.67 mg/dL
same,PHOSPHORUS,[1],10.2 mg/dL
same,POTASSIUM,[1],6.72 MEQ/L
same,SODIUM,[1],149.67 MEQ/L
same,TOTAL BILIRUBIN,[1],0.97 mg/dL
same,TOTAL PROTEIN,[1],6.58 G/DL
same,BASOPHIL,[2],0%
same,EOSINOPHIL,[2],0%
same,ERYTHROCYTE COUNT,[2],5.99 x10E6/uL
same,HEMATOCRIT,[2],36.88%
same,HEMOGLOBIN,[2],14.77 G/DL
same,LEUKOCYTE COUNT,[2],11.35 x10E3/uL
same,LYMPHOCYTE,[2],85.5%
same,MEAN CORPUSCULAR HEMOGLOBIN,[2],24.7 pg
same,MEAN CORPUSCULAR HEMOGLOBIN CONCENTRATION,[2],40.07 G/DL
same,MONOCYTE,[2],1.83%
same,NEUTROPHIL,[2],12.67%
same,PLATELET COUNT,[2],979.67 x10E3/uL
same,ALANINE AMINOTRANSFERASE,[2],36.5 u/L
same,ALBUMIN,[2],3.63 G/DL
same,ALKALINE PHOSPHATASE,[2],303.5 u/L
same,ASPARTATE AMINOTRANSFERASE,[2],61 u/L
same,BLOOD UREA NITROGEN,[2],16.5 mg/dL
same,CHLORIDE,[2],106.17 MEQ/L
same,CREATINE PHOSPHOKINASE,[2],154.83 u/L
same,CREATININE,[2],0.6 mg/dL
same,GLUCOSE,[2],201 mg/dL
same,PHOSPHORUS,[2],10.1 mg/dL
same,POTASSIUM,[2],6.85 MEQ/L
same,SODIUM,[2],148.17 MEQ/L
same,TOTAL BILIRUBIN,[2],0.58 mg/dL
same,TOTAL PROTEIN,[2],5.9 G/DL
same,BASOPHIL,[3],0%
same,EOSINOPHIL,[3],0%
same,ERYTHROCYTE COUNT,[3],5.39 x10E6/uL
same,HEMATOCRIT,[3],32.67%
same,HEMOGLOBIN,[3],13.03 G/DL
same,LEUKOCYTE COUNT,[3],10.2 x10E3/uL
same,LYMPHOCYTE,[3],85.67%
same,MEAN CORPUSCULAR HEMOGLOBIN,[3],24.17 pg
same,MEAN CORPUSCULAR HEMOGLOBIN CONCENTRATION,[3],39.9 G/DL
same,MONOCYTE,[3],1.33%
same,NEUTROPHIL,[3],13%
same,PLATELET COUNT,[3],1063.33 x10E3/uL
same,ALANINE AMINOTRANSFERASE,[3],43 u/L
same,ALBUMIN,[3],3.9 G/DL
same,ALKALINE PHOSPHATASE,[3],441.33 u/L
same,ASPARTATE AMINOTRANSFERASE,[3],61 u/L
same,BLOOD UREA NITROGEN,[3],16 mg/dL
same,CHLORIDE,[3],105.33 MEQ/L
same,CHOLESTEROL,[3],74.33 mg/dL
same,CREATINE PHOSPHOKINASE,[3],142.67 u/L
same,CREATININE,[3],0.57 mg/dL
same,GLUCOSE,[3],176.33 mg/dL
same,PHOSPHORUS,[3],11.97 mg/dL
same,POTASSIUM,[3],6.97 MEQ/L
same,SODIUM,[3],150.67 MEQ/L
same,TOTAL BILIRUBIN,[3],0.6 mg/dL
same,TOTAL PROTEIN,[3],6.5 G/DL
same,BASOPHIL,[4],0%
same,EOSINOPHIL,[4],0%
same,ERYTHROCYTE COUNT,[4],5.45 x10E6/uL
same,HEMATOCRIT,[4],33.47%
same,HEMOGLOBIN,[4],14.6 G/DL
same,LEUKOCYTE COUNT,[4],13.8 x10E3/uL
same,LYMPHOCYTE,[4],87.67%
same,MEAN CORPUSCULAR HEMOGLOBIN,[4],26.87 pg
same,MEAN CORPUSCULAR HEMOGLOBIN CONCENTRATION,[4],43.7 G/DL
same,MONOCYTE,[4],1.33%
same,NEUTROPHIL,[4],11%
same,PLATELET COUNT,[4],830.33 x10E3/uL
same,ALANINE AMINOTRANSFERASE,[4],40.67 u/L
same,ALBUMIN,[4],3.73 G/DL
same,ALKALINE PHOSPHATASE,[4],378.67 u/L
same,ASPARTATE AMINOTRANSFERASE,[4],63 u/L
same,BLOOD UREA NITROGEN,[4],14.33 mg/dL
same,CHLORIDE,[4],107.33 MEQ/L
same,CHOLESTEROL,[4],74 mg/dL
same,CREATINE PHOSPHOKINASE,[4],117.33 u/L
same,CREATININE,[4],0.67 mg/dL
same,GLUCOSE,[4],180 mg/dL
same,PHOSPHORUS,[4],10.5 mg/dL
same,POTASSIUM,[4],6.57 MEQ/L
same,SODIUM,[4],152.33 MEQ/L
same,TOTAL BILIRUBIN,[4],0.53 mg/dL
same,TOTAL PROTEIN,[4],6.03 G/DL
